# Results: publication PMC3491834 (EMBO Molecular Medicine, 2012)
# Biological target: InhA, NADH-dependent enoyl-[Acyl-Carrier-Protein] reductase (Mycobacterium tuberculosis, UniProt P9WGR1)
# Assay: enzyme turnover, NADH oxidation at […] nm
# Type: biochemical
# Sequence of InhA, NADH-dependent enoyl-[Acyl-Carrier-Protein] reductase (P9WGR1 whole entry, looked up): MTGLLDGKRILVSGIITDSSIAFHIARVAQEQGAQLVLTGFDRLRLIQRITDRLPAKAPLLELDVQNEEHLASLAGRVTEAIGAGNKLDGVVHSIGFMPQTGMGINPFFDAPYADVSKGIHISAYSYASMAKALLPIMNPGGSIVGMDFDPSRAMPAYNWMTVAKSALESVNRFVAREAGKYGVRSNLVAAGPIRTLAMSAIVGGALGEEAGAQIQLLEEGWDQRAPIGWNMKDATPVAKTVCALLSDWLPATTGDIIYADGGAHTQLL
smiles,measurement,value
"CCCCC/C=C/C(=O)SCCNC(=O)CCNC(=O)[C@H](O)C(C)(C)COP(=O)(O)OP(=O)(O)OC[C@H]1O[C@@H](n2cnc3c(N)ncnc32)[C@H](O)[C@@H]1OP(=O)(O)O [OcCoA, 2-trans-octenoyl-CoA]","enzyme turnover, NADH oxidation at 340 nm",All three enzymes were catalytically active and oxidized NADH in the presence of the substrate 2-trans-octenoyl-CoA (OcCoA)
